# Experimental data published in patent publication US9868736B2, “Deubiquitinase inhibitors and methods for use of the same” (THE REGENTS OF THE UNIVERSITY OF MICHIGAN, priority 2013, dated 2018).
# What was measured:
# Usp5 = target: T1, Usp5 (Homo sapiens, UniProt P45974); assay: DUB activity (HA-Ub labelling) in treated cells; type: cell-based
# T1 construct: endogenous in cells; host or cells: A375 and A375R melanoma cells (also SK-Mel28)
# T1 sequence (P45974 1-858): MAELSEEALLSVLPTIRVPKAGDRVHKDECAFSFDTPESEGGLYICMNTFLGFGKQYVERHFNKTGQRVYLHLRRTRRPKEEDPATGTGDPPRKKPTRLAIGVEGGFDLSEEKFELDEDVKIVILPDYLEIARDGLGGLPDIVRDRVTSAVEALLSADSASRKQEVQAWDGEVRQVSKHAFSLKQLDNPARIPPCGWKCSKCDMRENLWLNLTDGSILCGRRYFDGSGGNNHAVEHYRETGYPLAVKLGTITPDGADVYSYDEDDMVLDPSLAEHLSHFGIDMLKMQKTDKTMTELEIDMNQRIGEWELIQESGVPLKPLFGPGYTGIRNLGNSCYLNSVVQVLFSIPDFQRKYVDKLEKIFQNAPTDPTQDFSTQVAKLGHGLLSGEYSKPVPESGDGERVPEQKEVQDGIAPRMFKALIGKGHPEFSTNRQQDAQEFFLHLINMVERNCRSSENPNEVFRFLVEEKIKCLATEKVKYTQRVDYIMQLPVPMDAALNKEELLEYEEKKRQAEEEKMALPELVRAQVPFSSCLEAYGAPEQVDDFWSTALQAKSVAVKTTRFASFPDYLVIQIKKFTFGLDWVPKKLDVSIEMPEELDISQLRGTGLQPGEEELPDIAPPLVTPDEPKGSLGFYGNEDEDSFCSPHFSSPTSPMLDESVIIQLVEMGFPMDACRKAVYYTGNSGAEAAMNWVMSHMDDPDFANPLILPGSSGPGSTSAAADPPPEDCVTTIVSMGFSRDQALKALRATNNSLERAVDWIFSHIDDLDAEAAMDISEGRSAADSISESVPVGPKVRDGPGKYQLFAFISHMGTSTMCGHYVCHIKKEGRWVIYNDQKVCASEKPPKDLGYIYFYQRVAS
# Protocol: DUB activity was assessed by HA blotting and confirmed by monitoring a DUBs mobility shift due to its covalent modification with HA-Ub. DUB inhibition was detected in vemurafenib-responsive (SK-Mel28 and A375) cells and we noted a consistent change in a DUB (100 kDa) identified as Usp5 by LC/MS/MS of the excised protein band (data not shown) and direct immunoblotting. […] DUB activity was also compared in control and BRAF knockdown (KD) cells. BRAF shRNA reduced pERK levels and Usp5 activity.
# Similar results were obtained in A375R Usp5 KD cells treated with a MEK inhibitor.
# Usp9x = Usp9x (Homo sapiens, UniProt Q93008); assay: Usp9x activity, Mcl-1 and PARP in tumors extracted from treated mice; type: in vivo, NSG mice; parameters: from tissue; host or cells: MM1.S xenograft tumour extracted from NSG mice; details: 15 mg/kg, tumors extracted one hour after last injection
# Chain of Usp9x (Q93008 whole entry): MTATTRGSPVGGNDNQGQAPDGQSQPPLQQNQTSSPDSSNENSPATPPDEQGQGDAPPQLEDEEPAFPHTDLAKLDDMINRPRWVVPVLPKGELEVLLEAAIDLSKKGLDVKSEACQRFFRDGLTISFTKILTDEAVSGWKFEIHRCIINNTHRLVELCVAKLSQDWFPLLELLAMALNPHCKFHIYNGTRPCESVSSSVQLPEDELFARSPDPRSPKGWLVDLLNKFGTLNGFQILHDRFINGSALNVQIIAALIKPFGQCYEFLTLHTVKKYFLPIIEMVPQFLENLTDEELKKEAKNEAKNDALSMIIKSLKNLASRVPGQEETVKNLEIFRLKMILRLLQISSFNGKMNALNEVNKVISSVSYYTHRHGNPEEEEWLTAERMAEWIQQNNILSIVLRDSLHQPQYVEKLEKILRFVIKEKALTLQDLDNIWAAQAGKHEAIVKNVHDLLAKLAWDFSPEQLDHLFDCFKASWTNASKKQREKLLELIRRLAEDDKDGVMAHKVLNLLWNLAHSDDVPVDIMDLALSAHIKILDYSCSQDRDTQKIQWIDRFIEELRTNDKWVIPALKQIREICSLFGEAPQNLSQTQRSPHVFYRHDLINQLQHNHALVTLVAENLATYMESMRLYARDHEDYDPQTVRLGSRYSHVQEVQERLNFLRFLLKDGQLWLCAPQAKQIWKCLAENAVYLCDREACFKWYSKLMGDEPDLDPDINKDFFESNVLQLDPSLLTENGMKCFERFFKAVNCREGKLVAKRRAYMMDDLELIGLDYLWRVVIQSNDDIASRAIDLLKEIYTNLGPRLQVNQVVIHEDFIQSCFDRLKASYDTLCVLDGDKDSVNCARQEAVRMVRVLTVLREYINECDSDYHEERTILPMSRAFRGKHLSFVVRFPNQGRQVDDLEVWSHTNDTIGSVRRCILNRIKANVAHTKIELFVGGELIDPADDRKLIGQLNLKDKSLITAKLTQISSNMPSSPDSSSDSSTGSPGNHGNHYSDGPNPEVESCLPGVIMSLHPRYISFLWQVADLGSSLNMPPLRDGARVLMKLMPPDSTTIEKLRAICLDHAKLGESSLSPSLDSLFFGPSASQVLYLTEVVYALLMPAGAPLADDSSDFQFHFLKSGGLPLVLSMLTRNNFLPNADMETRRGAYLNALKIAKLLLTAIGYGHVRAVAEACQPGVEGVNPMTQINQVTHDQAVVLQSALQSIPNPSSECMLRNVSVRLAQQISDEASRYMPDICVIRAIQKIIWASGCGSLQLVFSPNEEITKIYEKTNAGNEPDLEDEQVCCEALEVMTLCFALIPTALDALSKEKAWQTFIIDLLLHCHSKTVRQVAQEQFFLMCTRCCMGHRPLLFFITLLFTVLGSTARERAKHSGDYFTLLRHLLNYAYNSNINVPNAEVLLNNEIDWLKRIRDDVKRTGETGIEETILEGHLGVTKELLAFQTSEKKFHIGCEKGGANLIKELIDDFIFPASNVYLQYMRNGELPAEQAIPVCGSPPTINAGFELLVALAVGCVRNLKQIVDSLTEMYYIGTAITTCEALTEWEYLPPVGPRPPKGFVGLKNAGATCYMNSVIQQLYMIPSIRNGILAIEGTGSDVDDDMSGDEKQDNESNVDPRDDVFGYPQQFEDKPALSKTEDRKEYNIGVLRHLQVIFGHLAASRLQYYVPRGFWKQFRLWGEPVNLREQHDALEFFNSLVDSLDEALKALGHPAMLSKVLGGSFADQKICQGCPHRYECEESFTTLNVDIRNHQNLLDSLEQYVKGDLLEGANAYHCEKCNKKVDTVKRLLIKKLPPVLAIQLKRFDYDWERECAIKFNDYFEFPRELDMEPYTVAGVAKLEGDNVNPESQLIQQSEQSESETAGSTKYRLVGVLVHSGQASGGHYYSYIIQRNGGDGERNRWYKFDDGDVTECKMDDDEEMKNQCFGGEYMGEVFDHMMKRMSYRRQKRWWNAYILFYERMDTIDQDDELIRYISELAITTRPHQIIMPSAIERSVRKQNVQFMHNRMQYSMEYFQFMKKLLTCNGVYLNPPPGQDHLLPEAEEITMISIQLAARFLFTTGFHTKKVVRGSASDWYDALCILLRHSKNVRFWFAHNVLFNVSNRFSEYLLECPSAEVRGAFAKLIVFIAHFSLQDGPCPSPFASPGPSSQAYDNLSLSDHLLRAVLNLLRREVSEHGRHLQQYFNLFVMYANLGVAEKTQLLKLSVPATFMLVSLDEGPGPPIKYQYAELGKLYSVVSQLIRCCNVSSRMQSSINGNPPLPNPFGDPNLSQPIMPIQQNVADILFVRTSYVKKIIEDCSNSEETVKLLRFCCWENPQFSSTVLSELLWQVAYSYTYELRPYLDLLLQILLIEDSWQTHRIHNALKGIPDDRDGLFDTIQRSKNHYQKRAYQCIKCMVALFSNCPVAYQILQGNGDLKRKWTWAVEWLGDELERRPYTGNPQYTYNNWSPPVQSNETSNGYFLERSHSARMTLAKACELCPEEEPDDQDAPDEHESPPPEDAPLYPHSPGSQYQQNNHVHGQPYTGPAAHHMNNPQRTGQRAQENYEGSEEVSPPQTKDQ
# Protocol: To analyze that potential, mice were euthanized one hour after their last injection and tumors were extracted, photographed and flash-frozen on dry ice. Tumor tissue was sheared in liquid nitrogen, ground to a powder with a mortar and pestle and proteins extracted to assess Usp9x activity in 20 μg of protein from each tumor specimen. Tumors extracted from control and 15 mg/kg G9 treated mice were assessed for Usp9x activity as described above. […] Also shown are the effects of treatment on Usp9x and Usp24 protein, the latter a DUB closely related to Usp9x. The effect of G9 on the Usp9x substrate Mcl-1, and on cleavage of caspase substrate PARP, are also shown.
# [1] = system: CD34+ cells from normal donors and myeloma cell lines (MM1.S, H929); assay: apoptosis by annexin V staining (flow cytometry); type: cell-based; details: 24 hours
# Protocol: Cellular apoptosis was measured by detection of annexin V on the surface of cells using flow cytometry. Cells were treated with the indicated concentration of G9 for 24 hours before assessing annexin positivity as an indication of […] using duplicate assays derived from duplicate samples. CD34+ cells from two normal donors (left) or two myeloma cell lines (right) were treated with the indicated concentration of G9 for 24 hours before measuring cell survival by annexin V staining (assessed by flow cytometry). Each data point represents the average of 2 samples assayed in duplicate and presented as the average+/−S.D. for each G9 concentration.
# Usp24 = Usp24 (Homo sapiens, UniProt Q9UPU5); assay: Usp24 inhibition
# Chain of Usp24 (Q9UPU5 whole entry): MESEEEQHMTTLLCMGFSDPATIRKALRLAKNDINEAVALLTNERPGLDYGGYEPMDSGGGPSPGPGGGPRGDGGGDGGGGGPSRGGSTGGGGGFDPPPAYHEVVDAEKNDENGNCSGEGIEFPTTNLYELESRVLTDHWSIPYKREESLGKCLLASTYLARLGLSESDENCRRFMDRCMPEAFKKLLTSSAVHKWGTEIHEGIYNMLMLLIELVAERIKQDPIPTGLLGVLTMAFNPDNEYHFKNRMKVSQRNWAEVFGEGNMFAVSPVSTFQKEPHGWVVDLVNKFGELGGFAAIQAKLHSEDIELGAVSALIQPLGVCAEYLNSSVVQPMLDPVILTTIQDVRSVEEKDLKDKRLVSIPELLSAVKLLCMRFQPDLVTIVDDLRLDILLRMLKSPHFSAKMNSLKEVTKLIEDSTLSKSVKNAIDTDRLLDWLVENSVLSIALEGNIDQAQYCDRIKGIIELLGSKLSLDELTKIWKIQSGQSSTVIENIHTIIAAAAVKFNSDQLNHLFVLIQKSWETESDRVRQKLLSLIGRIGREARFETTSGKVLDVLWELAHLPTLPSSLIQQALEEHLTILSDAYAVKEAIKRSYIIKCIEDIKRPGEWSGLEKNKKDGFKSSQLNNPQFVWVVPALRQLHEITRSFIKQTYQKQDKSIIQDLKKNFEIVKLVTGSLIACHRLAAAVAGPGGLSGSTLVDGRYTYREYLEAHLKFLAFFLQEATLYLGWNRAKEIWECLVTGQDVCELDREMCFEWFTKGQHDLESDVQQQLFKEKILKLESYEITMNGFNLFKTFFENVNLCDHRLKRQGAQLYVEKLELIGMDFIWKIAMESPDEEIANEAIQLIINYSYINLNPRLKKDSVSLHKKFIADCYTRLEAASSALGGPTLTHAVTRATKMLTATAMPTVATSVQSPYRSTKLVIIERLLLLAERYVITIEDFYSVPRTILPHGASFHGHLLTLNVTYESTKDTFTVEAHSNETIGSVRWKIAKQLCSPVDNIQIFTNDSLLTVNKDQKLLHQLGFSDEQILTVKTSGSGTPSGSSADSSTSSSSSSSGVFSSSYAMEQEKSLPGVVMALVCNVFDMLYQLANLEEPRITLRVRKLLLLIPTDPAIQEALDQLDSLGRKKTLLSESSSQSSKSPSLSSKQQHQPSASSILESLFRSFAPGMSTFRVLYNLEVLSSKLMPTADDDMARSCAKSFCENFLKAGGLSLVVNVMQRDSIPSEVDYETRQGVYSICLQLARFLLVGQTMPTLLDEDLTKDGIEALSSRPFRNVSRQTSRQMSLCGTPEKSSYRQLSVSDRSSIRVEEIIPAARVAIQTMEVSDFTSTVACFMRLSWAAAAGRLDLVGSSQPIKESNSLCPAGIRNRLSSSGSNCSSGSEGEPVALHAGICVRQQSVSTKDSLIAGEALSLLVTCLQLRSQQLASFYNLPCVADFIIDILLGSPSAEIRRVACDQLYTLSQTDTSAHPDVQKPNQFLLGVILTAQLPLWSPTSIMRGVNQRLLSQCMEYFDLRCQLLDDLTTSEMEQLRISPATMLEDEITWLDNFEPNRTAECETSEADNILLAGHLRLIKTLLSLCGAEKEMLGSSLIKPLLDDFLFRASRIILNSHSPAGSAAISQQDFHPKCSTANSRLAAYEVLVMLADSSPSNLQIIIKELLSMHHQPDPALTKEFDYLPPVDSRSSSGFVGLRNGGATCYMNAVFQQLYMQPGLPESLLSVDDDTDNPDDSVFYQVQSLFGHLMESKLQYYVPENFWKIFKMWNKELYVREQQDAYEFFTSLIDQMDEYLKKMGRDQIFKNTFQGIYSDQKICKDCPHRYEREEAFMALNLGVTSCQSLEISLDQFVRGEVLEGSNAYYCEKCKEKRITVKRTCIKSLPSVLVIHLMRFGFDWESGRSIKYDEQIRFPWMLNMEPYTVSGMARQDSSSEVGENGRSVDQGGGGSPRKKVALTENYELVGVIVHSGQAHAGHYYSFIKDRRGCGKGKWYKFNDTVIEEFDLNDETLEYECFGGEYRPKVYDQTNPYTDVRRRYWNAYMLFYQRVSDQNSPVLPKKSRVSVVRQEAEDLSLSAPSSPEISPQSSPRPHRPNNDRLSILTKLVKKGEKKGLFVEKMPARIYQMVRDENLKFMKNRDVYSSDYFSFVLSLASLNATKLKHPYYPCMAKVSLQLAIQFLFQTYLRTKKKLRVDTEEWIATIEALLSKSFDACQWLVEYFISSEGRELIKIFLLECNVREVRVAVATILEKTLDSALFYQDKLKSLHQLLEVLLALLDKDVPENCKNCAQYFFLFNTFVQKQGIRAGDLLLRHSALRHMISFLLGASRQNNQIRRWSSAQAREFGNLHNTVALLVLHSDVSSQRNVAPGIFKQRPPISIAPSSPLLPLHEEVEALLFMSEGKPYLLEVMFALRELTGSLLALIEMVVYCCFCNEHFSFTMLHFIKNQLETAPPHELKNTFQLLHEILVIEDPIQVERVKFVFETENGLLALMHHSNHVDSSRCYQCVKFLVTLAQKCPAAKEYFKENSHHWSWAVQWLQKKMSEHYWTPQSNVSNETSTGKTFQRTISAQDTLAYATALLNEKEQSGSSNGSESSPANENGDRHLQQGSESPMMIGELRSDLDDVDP
# [2] = system: murine norovirus, Tulane virus, Listeria monocytogenes, Toxoplasma gondii, Norwalk virus; assay: inhibition of category A and B pathogens
# [3] = plasma level in mice after IV, PO or IP administration (LC/MS); type: in vivo, Balb/c mice; details: for concentration at 0.5 h / concentration at 2 h / concentration at 4 h / concentration at 7 h / AUC(0-t) / half-life: Balb/c, mouse, plasma
# Protocol: To determine whether G9 or 067 had anti-tumor activity in animals, we first assessed their properties in mice when introduced intravenously (IV) or by oral gavage (PO). G9 or 067 was administered once to two mice per group at the indicated dosage level and route (IV or PO) and plasma was collected at the time point indicated after administration. Compound concentration in the plasma was measured by high performance liquid chromatography coupled with mass spectroscopy detection (LC/MS).
# Balb/c mice were treated with either 067 or G9 dissolved in dimethyl sulfoxide: polyethylene glycol 300 (1:1) and administered as indicated. The level of each compound in the plasma of each mouse at the time point indicated is shown in the line graph. The area under the curve (AUC) was calculated and tabulated below each line graph. […] The level of each compound in the plasma of each mouse at the time point indicated is shown Table 2. Several pharmacokinetic parameters were also calculated. […] The half-life of G9 was similar to 067 when administered by IP injection (30-60 min). Based on these assessments, G9 was further evaluated for anti-tumor activity in mice.
# [4] = intravenous, 10 mg/kg, IV1 10 mg/kg
# [5] = intravenous, 10 mg/kg, IV2 10 mg/kg
smiles,measurement,setting,value
"CCCC(NC(=O)/C(C#N)=C/c1nc(Cl)ccc1Cl)c1ccc(OCCN2CCOCC2)cc1 (stereo not shown) [Compound G9, (E)-2-Cyano-3-(3,6-dichloropyridin-2-yl)-N-(1-(4-(2-morpholinoethoxy)phenyl)butyl)acrylamide]",Usp5 inhibition,"Usp5; myeloma (MM1.S) cells, various concentrations, FIG. 10",inhibits Usp9x and Usp5
same,Usp5 activity,Usp5; vemurafenib sensitive and resistant A375 cells,reduced Usp5 (and Usp9x) activity in both cell types
same,Mcl-1 protein levels in MM1.S tumors,Usp9x,reduces Mcl-1 protein levels
same,Usp9x DUB activity in MM1.S tumors,Usp9x,reduces Usp9x DUB activity
same,apoptosis (PARP cleavage) in MM1.S tumors,Usp9x,activates apoptosis
same,apoptotic sensitivity of myeloma tumor cells versus normal CD34+ cells,[1],more apoptotically sensitive to G9 than normal CD34+ cells
same,"effectiveness in inducing apoptosis, tumor (myeloma) versus normal CD34+ cells",[1],~10 fold
same,Usp24 inhibition,Usp24,inhibited the DUB Usp24
same,inhibition of category A and B pathogens and related family members,[2],potent inhibitor
same,concentration at 0.5 h,[3]; [4],1880 ng/mL
same,concentration at 2 h,[3]; [4],395 ng/mL
same,concentration at 4 h,[3]; [4],126 ng/mL
same,concentration at 7 h,[3]; [4],38.6 ng/mL
same,concentration at 0.5 h,[3]; [5],1220 ng/mL
same,concentration at 2 h,[3]; [5],520 ng/mL
same,concentration at 4 h,[3]; [5],289 ng/mL
same,concentration at 7 h,[3]; [5],208 ng/mL
same,AUC(0-t),"[3]; iv, 10 mg/kg, IV1 10 mg/kg",3730 ng·h/mL
same,AUC(0-t),"[3]; iv, 10 mg/kg, IV2 10 mg/kg",3570 ng·h/mL
same,concentration at 0.5 h,"[3]; oral, 30 mg/kg, PO1 30 mg/kg",60.8 ng/mL
same,concentration at 2 h,"[3]; oral, 30 mg/kg, PO1 30 mg/kg",35.8 ng/mL
same,concentration at 4 h,"[3]; oral, 30 mg/kg, PO1 30 mg/kg",44.5 ng/mL
same,concentration at 7 h,"[3]; oral, 30 mg/kg, PO1 30 mg/kg",37.6 ng/mL
same,concentration at 0.5 h,"[3]; oral, 30 mg/kg, PO2 30 mg/kg",78.7 ng/mL
same,concentration at 2 h,"[3]; oral, 30 mg/kg, PO2 30 mg/kg",59 ng/mL
same,concentration at 4 h,"[3]; oral, 30 mg/kg, PO2 30 mg/kg",57.1 ng/mL
same,concentration at 7 h,"[3]; oral, 30 mg/kg, PO2 30 mg/kg",16.1 ng/mL
same,AUC(0-t),"[3]; po, 30 mg/kg, PO1 30 mg/kg",291 ng·h/mL
same,AUC(0-t),"[3]; po, 30 mg/kg, PO2 30 mg/kg",349 ng·h/mL
same,half-life,"[3]; mice, IP injection",0.5 to 1 h
same,half-life,"[3]; mice, IV or PO study of Table 2",1.5 to 2 h
same,bio-availability following IV administration,"[3]; mice, IV",bio-available following IV administration
same,"peak plasma levels, G9 compared with 067","[3]; mice, IV",higher peak levels
same,oral bio-availability,"[3]; mice, PO",poor oral bio-availability
